{
  "source": "paper PMC8857485",
  "about": "“Prostate secretory protein 94 inhibits sterol binding and export by the mammalian CAP protein CRISP2 in a calcium-sensitive manner” (The Journal of Biological Chemistry, 2022)",
  "key": {"[1]": {"molecular_target": "T1, CAP domain of Pry1 (Pry1^CAP) (Saccharomyces cerevisiae, UniProt P47032)", "T1 construct": "made in house; host or cells: E. coli BL21", "T1 sequence (P47032 167-281 limits assumed)": "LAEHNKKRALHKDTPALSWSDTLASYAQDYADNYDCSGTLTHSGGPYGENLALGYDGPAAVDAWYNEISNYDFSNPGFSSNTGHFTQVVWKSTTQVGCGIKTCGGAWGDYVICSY", "test": "MST binding to the CAP domain of Pry1", "source_text": "(§1) To confirm the direct interaction of PSP94 with CRISP3 and to test whether PSP94 would also bind other CAP family members such as yeast Pry1, or CRISP2, we performed in vitro protein binding assay using microscale thermophoresis (MST). Therefore, PSP94 and the CAP family members, Pry1, CRISP2, and CRISP3, were expressed as fusion proteins with a C-terminal polyhistidine tag in Escherichia coli, and the proteins were affinity purified on nickel-NTA agarose beads. The purified CAP proteins were then fluorescently labeled using RED-tris-NTA and incubated with varying concentrations of PSP94. […] PSP94 thus has high binding affinity for all three CAP proteins tested, and it also binds the CAP domain of Pry1 (Pry1^CAP) alone.\nDNA encoding proteins of interest were PCR amplified and cloned into NcoI and XhoI restriction sites of pET22b, which contains a PelB signal sequence to direct the secretion of expressed protein into the periplasmic space. […] Protein concentration was determined by Lowry assay using the Folin reagent and bovine serum albumin as protein standard.\n(§2) MST experiments were performed to assess protein–protein, protein–lipid, and protein–calcium interactions using a Monolith NT.115 (Nanotemper Technologies). […] The dissociation constant Kd was obtained by plotting the normalized fluorescence (Fnorm) against the logarithm of ligand concentration. […]"}, "[2]": {"molecular_target": "T2, CRISP2 (Homo sapiens, UniProt P16562)", "T2 construct": "made in house; host or cells: E. coli BL21", "T2 sequence (P16562 22-243)": "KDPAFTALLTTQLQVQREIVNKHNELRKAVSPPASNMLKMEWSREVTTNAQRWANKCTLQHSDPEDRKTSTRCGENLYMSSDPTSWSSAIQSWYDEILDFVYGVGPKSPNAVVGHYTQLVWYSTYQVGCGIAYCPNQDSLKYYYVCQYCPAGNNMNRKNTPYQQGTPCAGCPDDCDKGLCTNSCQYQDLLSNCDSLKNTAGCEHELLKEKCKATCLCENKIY", "test": "MST binding to CRISP2", "parameters": "species or system mammalian", "source_text": "as §1\nDNA encoding proteins of interest were PCR amplified and cloned into NcoI and XhoI restriction sites of pET22b, which contains a PelB signal sequence to direct the secretion of expressed protein into the periplasmic space. Plasmids were transformed into E. coli BL21, and proteins were expressed with a C-terminal polyhistidine tag. Different induction strategies were used: overnight induction with lactose at 24 °C for Pry1, CRISP2, and PSP94 and 6 h of induction with 0.4 mM IPTG at 24 °C for the CAP domain of Pry1. Cells were collected and lysed, and the soluble cell lysate was incubated with nickel-nitrilotriacetic acid beads as per the manufacturer instructions (Qiagen). Beads were washed and loaded onto a Ni^2+-NTA column, and proteins were eluted with a buffer containing 60 mM NaH2PO4, 300 mM NaCl, and 300 mM imidazole, pH 8.0. […] Protein concentration was determined by Lowry assay using the Folin reagent and bovine serum albumin as protein standard.\nas §2"}, "[3]": {"molecular_target": "T3, CRISP2 L98G (Homo sapiens, UniProt P16562, L98G)", "T3 construct": "made in house; host or cells: E. coli", "T3 sequence (P16562 22-243 L98G)": "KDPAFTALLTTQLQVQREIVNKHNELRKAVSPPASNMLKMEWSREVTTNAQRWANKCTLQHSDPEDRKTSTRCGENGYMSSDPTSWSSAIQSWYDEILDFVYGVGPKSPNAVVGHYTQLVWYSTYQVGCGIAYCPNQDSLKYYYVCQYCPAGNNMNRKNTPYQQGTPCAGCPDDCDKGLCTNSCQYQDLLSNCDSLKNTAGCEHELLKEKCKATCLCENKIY", "test": "MST binding to CRISP2 single mutant L98G", "parameters": "species or system mammalian", "conditions": "absence of PSP94, read-out: Kd, sterol binding by CRISP2 L98G", "source_text": "(§3) This interaction is thus located outside the hydrophobic loop that harbors the sterol-binding CBM. Based on these structural considerations, it is thus not apparent why and how the interaction between PSP94 and CRISP2 would block sterol binding at the CBM. To investigate this question in more detail, we first performed computational docking studies to identify residues in CRISP2 that are critical for the interaction with PSP94. […] Two of these three interacting residues, N97 and L98, are conserved in all three CAP family members tested here, CRISP2, CRISP3, and Pry1 (Fig. 4A). […]\nas §2\n(§4) Quadruple mutant cells lacking the acyl-CoA synthetases FAA1 and FAA4 and the yeast CAP family members PRY1 and PRY3 (faa1∆ faa4∆ pry1∆ pry3∆) expressing different combinations of plasmid-borne copies of PRY1, CRISP2, and or PSP94, or their respective empty vectors (pRS423 or pRS426) were cultivated overnight. The export of fatty acids into the culture medium was then quantified. […]"}, "[4]": {"molecular_target": "T4, CRISP2 Y99P (Homo sapiens, UniProt P16562, Y99P)", "T4 construct": "made in house; host or cells: E. coli", "T4 sequence (P16562 22-243 Y99P)": "as the sequence (P16562 22-243 L98G) above, with G77L, Y78P counted along it", "test": "MST binding to CRISP2 single mutant Y99P", "parameters": "species or system mammalian", "conditions": "absence of PSP94, read-out: Kd, sterol binding by CRISP2 Y99P", "source_text": "as §3, §2, §4"}},
  "note": "Structures can show the parent of a compound that is named as a salt. Where two headings read alike, the source gives them in different places.",
  "data": [
    {"smiles": "CC(C)CCC[C@@H](C)[C@H]1CC[C@H]2[C@@H]3CC=C4C[C@@H](OS(=O)(=O)O)CC[C@]4(C)[C@H]3CC[C@]12C", "note": "[cholesterol sulfate]", "values": [
      {"measurement": "Kd", "setting": "[1]; PSP94^F24G preincubated 5 min at 24 °C, read-out: Kd, sterol binding by Pry1^CAP in presence of PSP94^F24G", "value": "4.14 ± 0.92", "unit": "µM"},
      {"measurement": "Kd", "setting": "[1]; absence of PSP94, read-out: Kd, sterol binding by Pry1^CAP", "value": "0.9 ± 1.9", "unit": "µM"},
      {"measurement": "Kd", "setting": "[2]; PSP94^F24G preincubated 5 min at 24 °C, read-out: Kd, sterol binding by CRISP2 in presence of PSP94^F24G", "value": "9.7 ± 3.04", "unit": "µM"},
      {"measurement": "Kd", "setting": "[2]; absence of PSP94, read-out: Kd, sterol binding by CRISP2", "value": "1.6 ± 0.9", "unit": "µM"},
      {"measurement": "Kd", "setting": "[3]", "value": "95 ± 2.1", "unit": "µM"},
      {"measurement": "Kd", "setting": "[4]", "value": "2.5 ± 0.9", "unit": "µM"}
    ]}
  ]
}
